Measurements from ChEMBL document CHEMBL4330071 (Eur J Med Chem, 2019).

How the values were obtained:
[1] = target: T1, Receptor-type tyrosine-protein kinase FLT3 (Homo sapiens, UniProt P36888); test: Inhibition of human FLT3 using EAIYAAPFAKKK as substrate preincubated for 20 mins followed by [gamma-33P]-ATP addition and measured after 120 mins by Hotspot assay
T1 sequence (P36888 whole entry): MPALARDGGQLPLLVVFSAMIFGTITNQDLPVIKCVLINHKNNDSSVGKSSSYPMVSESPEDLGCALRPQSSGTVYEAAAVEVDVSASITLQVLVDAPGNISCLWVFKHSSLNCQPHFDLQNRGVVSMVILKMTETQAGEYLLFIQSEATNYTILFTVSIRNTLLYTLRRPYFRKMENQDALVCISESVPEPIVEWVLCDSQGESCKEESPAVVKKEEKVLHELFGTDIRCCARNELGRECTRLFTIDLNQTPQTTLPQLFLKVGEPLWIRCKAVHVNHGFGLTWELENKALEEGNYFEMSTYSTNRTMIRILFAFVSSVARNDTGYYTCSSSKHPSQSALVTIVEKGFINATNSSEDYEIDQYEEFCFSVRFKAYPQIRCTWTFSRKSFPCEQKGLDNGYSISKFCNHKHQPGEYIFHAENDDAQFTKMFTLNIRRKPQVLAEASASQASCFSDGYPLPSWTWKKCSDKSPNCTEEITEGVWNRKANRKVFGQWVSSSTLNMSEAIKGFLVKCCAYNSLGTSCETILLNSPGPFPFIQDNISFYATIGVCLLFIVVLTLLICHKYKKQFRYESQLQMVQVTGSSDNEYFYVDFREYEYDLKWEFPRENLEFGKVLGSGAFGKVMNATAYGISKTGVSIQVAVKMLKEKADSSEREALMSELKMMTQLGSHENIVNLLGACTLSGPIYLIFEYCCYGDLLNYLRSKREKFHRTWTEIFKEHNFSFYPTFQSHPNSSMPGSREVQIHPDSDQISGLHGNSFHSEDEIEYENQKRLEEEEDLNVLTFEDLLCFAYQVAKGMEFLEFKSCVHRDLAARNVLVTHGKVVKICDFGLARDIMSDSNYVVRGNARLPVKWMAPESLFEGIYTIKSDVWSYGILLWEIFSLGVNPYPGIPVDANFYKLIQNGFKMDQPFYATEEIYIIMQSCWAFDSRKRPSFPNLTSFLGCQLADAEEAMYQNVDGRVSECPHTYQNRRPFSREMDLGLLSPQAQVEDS

[2] = system: MV4-11; test: Induction of apoptosis in human MV4-11 cells assessed as late apoptotic cells at 1 uM after 24 hrs by Annexin V-FITC/propidium iodide staining based flow cytometric analysis (reference value: 1.42%); type: functional
[3] = system: MV4-11; test: Cytotoxicity against human MV4-11 cells at 1 uM after 72 hrs by MTT assay; type: cell-based; conditions: mv4-11, 72 h
[4] = system: MV4-11; test: Induction of apoptosis in human MV4-11 cells assessed as early apoptotic cells at 1 uM after 24 hrs by Annexin V-FITC/propidium iodide staining based flow cytometric analysis (reference value: 3.39%); type: functional
[5] = system: MV4-11; test: Induction of apoptosis in human MV4-11 cells assessed as viable cells at 1 uM after 24 hrs by Annexin V-FITC/propidium iodide staining based flow cytometric analysis (reference value: 95.19%); type: functional; conditions: MV4-11, 24 h, read-out: Activity
[6] = system: MV4-11; test: Induction of apoptosis in human MV4-11 cells assessed as necrotic cells at 1 uM after 24 hrs by Annexin V-FITC/propidium iodide staining based flow cytometric analysis (reference value: 0%); type: functional
[7] = Intrinsic clearance in human liver microsomes assessed per mg protein at 1 uM after 5 to 60 mins in presence of NADPH by LC-MS/MS analysis; type: ADME, Microsome; conditions: read-out: CLH
[8] = Intrinsic clearance in rat liver microsomes assessed per mg protein at 1 uM after 5 to 60 mins in presence of NADPH by LC-MS/MS analysis; type: ADME, Microsome; conditions: read-out: CLH
[9] = Half life in human liver microsomes at 1 uM after 5 to 60 mins in presence of NADPH by LC-MS/MS analysis; type: ADME, Microsome
[10] = Half life in rat liver microsomes at 1 uM after 5 to 60 mins in presence of NADPH by LC-MS/MS analysis; type: ADME, Microsome

Structure (SMILES): CN1CCN(c2ccc(Nc3[nH]nc4c3-c3ccccc3CC4)cc2)CC1
- IC50 [1]: 610 nM

Structure (SMILES): COc1ccc(Oc2ccc3c(NC(=O)c4ccc(NC5CCN(C)CC5)cc4)n[nH]c3c2)cc1
- IC50 [1]: 222 nM

Structure (SMILES): CN1CCC(Nc2ccc(C(=O)Nc3n[nH]c4cc(Oc5ccccc5)ccc34)cc2)CC1
- IC50 [1]: 136 nM

Structure (SMILES): CNC(=O)c1cc(Oc2ccc(NC(=O)Nc3ccc(Cl)c(C(F)(F)F)c3)cc2)ccn1 [SORAFENIB]
- Activity [2]: 27.58%
- Activity [3]: Non-Toxic
- Activity [4]: 32.25%
- viability at 1 µM [5]: 36%
- Activity [6]: 4.2%

Structure (SMILES): CN1CCN(c2ccc(Nc3[nH]nc4c3-c3ccccc3CO4)cc2)CC1
- IC50 [1]: 842 nM

Structure (SMILES): Cc1ncc2n1-c1ccc(Cl)cc1C(c1ccccc1F)=NC2 [MIDAZOLAM]
- microsomal CLint at 1 µM [7]: 625 µL/min/mg
- microsomal CLint at 1 µM [8]: 124 µL/min/mg
- half-life at 1 µM [9]: 2.2 min
- half-life at 1 µM [10]: 11.2 min
